From patent US4413005A, “Carbamate derivatives and insecticidal, miticidal or nematocidal compositions containing the same” (priority 1981, dated 1983)
Entries after “also recorded” stand apart in the source; their conditions may differ.

Legend:
[1] = tested on: tobacco cutworm (Spodoptera litura); experiment: Mortality of third-instar larvae of tobacco cutworm on cabbage (Test Example 1); format: in vivo; settings: 72 h
Description: Ten third-instar larvae of tobacco cutworm (Spodoptera litura) were placed on a cabbage (one-month-old seedling) planted in a pot, and a 50% emulsion of the compound to be tested was diluted to a specified concentration and applied to the leaves of the plant to fully wet them. The test compound of each specified concentration was tested on two pots.

[2] = tested on: green rice leafhopper (Nephotettix cincticeps); experiment: Mortality of female adults of green rice leafhopper on paddy rice (Test Example 2); format: in vivo; settings: 72 h
Description: An emulsion of specified concentration was prepared from a 50% wettable powder of the compound to be tested and applied to the leaves of paddy rice (one-month-old seedlings) planted in a pot to fully wet the leaves. After the emulsion had been dried, the pot was covered with a net cage, into which 10 female adults of green rice leafhopper (Nephotettix cincticeps) were released. The compound of each specified concentration was tested on two pots.

[3] = tested on: house fly (Musca domestica); experiment: Local application to house fly, LD50 by Probit method (Test Example 4); format: in vivo; settings: topical, 24 h
Description: The compound to be tested was dissolved in a predetermined amount of acetone. The solution was diluted to various concentrations and locally applied to house fly (Musca domestica).

[4] = Acute oral toxicity in male mice, LD50 by Litchfield-Wilcoxon method (Test Example 5); settings: mouse, in vivo, mortality on the seventh day
Description: Compounds of this invention were tested on male mice for acute toxicity by oral administration.

noxious insects = settings: background statement, known; cited from earlier work
warm-blooded animals = settings: background statement, known; cited from earlier work

| SMILES | mortality at 500 ppm [1] [%] | mortality at 1000 ppm [1] [%] | mortality at 2000 ppm [1] [%] | mortality at 200 ppm [2] [%] | mortality at 400 ppm [2] [%] | mortality at 800 ppm [2] [%] | LD50 [3] [mg/kg] | LD50 at 168 h [4] [mg/kg] | insecticidal activity (noxious insects) | toxicity to warm-blooded animals (warm-blooded animals) |
| --- | --- | --- | --- | --- | --- | --- | --- | --- | --- | --- |
| CCOC(=O)CN(SN(C)C(=O)Oc1cccc2c1OC(C)(C)C2)C(=O)c1ccc(Cl)cc1 [Example 47] | 65 | 80 | 100 | 60 | 75 | 95 | 57.8 | 95 |  |  |
| CCOC(=O)CN(SN(C)C(=O)Oc1cccc2c1OC(C)(C)C2)S(=O)(=O)c1ccc(C)cc1 [Example 48] | 65 | 80 | 100 | 60 | 75 | 95 | 58.6 | 80 |  |  |
| CCOC(=O)CN(SN(C)C(=O)Oc1cccc2c1OC(C)(C)C2)C(=O)OC [Example 49] | 75 | 90 | 100 | 70 | 90 | 100 | 15.7 | 105 |  |  |
| CCOC(=O)CN(SN(C)C(=O)Oc1cccc2c1OC(C)(C)C2)C(=O)Oc1ccccc1 [Example 50] | 65 | 80 | 100 | 60 | 75 | 95 | 34.7 | 95 |  |  |
| CCOC(=O)N(CCC#N)SN(C)C(=O)Oc1cccc2c1OC(C)(C)C2 [Example 51] | 70 | 85 | 100 | 65 | 85 | 100 | 45.3 | 88 |  |  |
| CCOC(=O)CCN(SN(C)C(=O)Oc1cccc2c1OC(C)(C)C2)C(=O)OCC [Example 52] | 70 | 85 | 100 | 65 | 85 | 100 | 54.3 | 125 |  |  |
| CNC(=O)Oc1cccc2c1OC(C)(C)C2 [carbofuran, 2,3-dihydro-2,2-dimethylbenzofuran-7-yl N-methyl-carbamate] |  |  |  |  |  |  |  | 5.6 | high insecticidal activity; also recorded: highest insecticidal activity heretofore known | high toxicity to warm-blooded animals |
